The test system of one assay is morningglory. Briefly: Test A pre-/postemergence herbicide test. In kind it is in vivo, Ipomoea spp. Summed up: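 Both application timings were run together: directed soil spray over freshly planted seeds in sandy loam, and runoff spray onto 2–10 cm seedlings. Evaluation after ~10 days in greenhouse used a 0–100 visual scale versus untreated controls.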
For another assay, the system named is kochia. Nature of the assay: Test C pre-/postemergence herbicide test. Format: in vivo, Kochia scoparia. An excerpt: Seeds of plant species selected from bermudagrass (Cynodon dactylon (L.) Pers.), Surinam grass (Urochloa decumbens (Staph) R. D. Webster, previously named Brachiaria decumbens Stapf), cocklebur (Xanthium strumarium L.), corn (Zea mays L.), large crabgrass (Digitaria sanguinalis (L.) Scop.), woolly cupgrass (Eriochloa villosa (Thunb.) Kunth), giant foxtail (Setaria faberi Herrm.), goosegrass (Eleusine indica (L.) Gaertn.), johnsongrass (Sorghum halepense (L.) Pers.), kochia (Kochia scoparia (L.) Schrad.), lambsquarters (Chenopodium album L.), morningglory (Ipomoea coccinea L.), eastern black nightshade (Solanum ptycanthum Dunal), yellow nutsedge (Cyperus esculentus L.), pigweed (Amaranthus retroflexus L.), common ragweed (Ambrosia elatior L.), soybean (Glycine max (L.) Merr.), common (oilseed) sunflower (Helianthus annuus L.) and velvetleaf (Abutilon theophrasti Medik.) were planted and treated preemergence with test chemicals formulated in a non-phytotoxic solvent mixture which included a surfactant.
At the same time, plants selected from these crop and weed species and also winter barley (Hordeum vulgare L.), blackgrass (Alopecurus myosuroides Huds.), canarygrass (Phalaris minor Retz.), chickweed (Stellaria media (L.) Vill.), downy bromegrass (Bromus tectorum L.), green foxtail (Setaria viridis (L.) Beauv.), Italian ryegrass (Lolium multiflorum Lam.), wheat (Triticum aestivum L.), wild oat (Avenafatua L.) and windgrass (Apera spica-venti (L.) Beauv.) were treated with postemergence applications of some of the test chemicals formulated in the same manner. Plants ranged in height from 2 to 18 cm (1- to 4-leaf stage) for postemergence treatments. Plant species in the flooded paddy test consisted of rice (Oryza sativa), smallflower umbrella sedge (Cyperus difformis L.), ducksalad (Heteranthera limosa (Sw.) Willd.) and barnyardgrass (Echinochloa crus-galli (L.) Beauv.) grown to the 2-leaf stage for testing. Treated plants and controls were maintained in a greenhouse for 12 to 14 days, after which time all species were compared to controls and visually evaluated. Plant response ratings, summarized in Table C, are based on a scale of 0 to 100 where 0 is no effect and 100 is complete control. A dash (-) response means no test result.

Setting [1] is: Postemergence, 500 g ai/ha, 0 to 100 scale, 0 no effect, 100 complete control.
Setting [2] is: Postemergence, 2000 g ai/ha, 0 to 100 scale, 0 no effect, 100 complete control.
Where [3] appears, read: Preemergence, 2000 g ai/ha, visual rating, 0 to 100 scale (0 no effect, 100 complete control).
Setting [4] is: preemergence, 500 g ai/ha, visual injury, 0 to 100 scale (0 no effect, 100 complete control).
Where [5] appears, read: 62 g ai/ha, preemergence, scale 0 to 100.
Setting [6] is: 125 g ai/ha, scale 0 (no effect) to 100 (complete control), visual, 12 to 14 days, preemergence.
Where [7] appears, read: 250 g ai/ha, scale 0-100, preemergence.
The mark [8] stands for this setting: 500 g ai/ha, scale 0 to 100 (0 no effect, 100 complete control), visual, 12 to 14 days, preemergence.
The mark [9] stands for this setting: Preemergence, 500 g ai/ha, visual rating, 0 to 100 scale (0 no effect, 100 complete control).
Where [10] appears, read: Preemergence, 2000 g ai/ha, 0 to 100 scale, 0 no effect, 100 complete control.
The mark [11] stands for this setting: 250 g ai/ha, scale 0 to 100 (0 no effect, 100 complete control), visual, 12 to 14 days, preemergence.
Where [12] appears, read: Postemergence, 125 g ai/ha, scale 0 to 100, 0 no effect, 100 complete control.
[13] abbreviates: Postemergence, 250 g ai/ha, scale 0 to 100, 0 no effect, 100 complete control.
Where [14] appears, read: postemergence, 62 g ai/ha, scale 0 to 100.
Where [15] appears, read: Postemergence, 500 g ai/ha, scale 0 to 100.
The mark [16] stands for this setting: postemergence, 125 g ai/ha, scale 0 to 100.
[17] abbreviates: Preemergence, 500 g ai/ha, scale 0 to 100, 0 no effect, 100 complete control.

Turning to `CCN(CC)C(=O)c1cccc(NC(=O)c2cc(C(C)(C)C)nn2C)n1` [Compound 314], the “Morningglory plant response rating” value worked out at 30 with morningglory (setting [1]), 30 in the assay on morningglory (setting [3]) and 10 in the assay on morningglory (setting [4]). The “Plant response rating, Morningglory” value with morningglory (setting [2]) was determined as 50. The “Plant response rating, Kochia” value in the assay on kochia (setting [5]) is on record as 0; in the assay on kochia (setting [6]), 0; in the assay on kochia (setting [7]), 30; with kochia (setting [8]), 70.

`CCc1nn(C(C)C)nc1C(=O)Nc1cccc(C(=S)N(C)C)c1` [Compound 409]: in the assay with kochia (125 g ai/ha, preemergence), the “Plant response rating (0 = no effect, 100 = complete control), Kochia” value came to 70. In addition, the results for the “Plant response rating, Kochia” value in the assay on kochia (setting [7]) and with kochia (setting [8]) were 85 and 95, respectively.

`CCn1nc(C(C)(C)C)cc1C(=O)Nc1cccc(C(=O)NC2CC2)c1` [Compound 44]: the “Plant response rating, Morningglory” value in the assay on morningglory (setting [1]) amounted to 15; in the assay with morningglory (setting [2]) it was 45. The “Morningglory plant response rating” value in the assay on morningglory (setting [9]) is listed as 10; in the assay with morningglory (setting [10]) it was 30. In addition, the “Plant response rating (0 = no effect, 100 = complete control), Kochia” value in the assay on kochia (62 g ai/ha, preemergence) was determined as 0. Also, the “Plant response rating, Kochia” value in the assay with kochia (setting [6]) is reported as 10; in the assay on kochia (setting [11]) it was 10; in the assay on kochia (setting [12]), 90; in the assay on kochia (setting [13]) it was 90; in the assay on kochia (setting [14]), 90.

`C=CCNC(=O)c1cccc(NC(=O)c2cc(C(C)(C)C)nn2C)n1` [Compound 318]: the “Morningglory plant response rating” value stood at 50 in the assay on morningglory (setting [1]), 50 in the assay with morningglory (setting [3]) and 20 with morningglory (setting [4]). In the assay on morningglory (setting [2]), the “Plant response rating, Morningglory” value was 55. Moreover, the “Plant response rating, Kochia” value in the assay on kochia (setting [5]) was determined as 10; in the assay on kochia (setting [6]), 60; in the assay on kochia (setting [7]) it was 85; in the assay with kochia (setting [8]), 100; in the assay with kochia (setting [13]) it was 60; in the assay with kochia (setting [16]), 10. The “Plant response rating, Kochia” value in the assay with kochia (setting [14]) stood at 0. Further, in the assay with kochia (setting [15]), the “Kochia plant response rating” value worked out at 60.

`CCNC(=S)c1cccc(NC(=O)c2nn(C(C)(C)C)nc2C)c1` [Compound 420]: the results for the “Plant response rating, Kochia” value in the assay with kochia (setting [5]), in the assay with kochia (setting [7]) and in the assay on kochia (setting [8]) were 70, 100 and 100, respectively. Further, the “Plant response rating (0 = no effect, 100 = complete control), Kochia” value in the assay with kochia (125 g ai/ha, preemergence) is 85.

As for `CCNC(=O)c1cccc(NC(=O)c2cc(C(C)(C)C)nn2CCF)c1` [Compound 35], the “Plant response rating, Morningglory” value with morningglory (setting [1]) and with morningglory (setting [2]) was 10 in each case. Moreover, the “Morningglory plant response rating” value is given as 25 in the assay with morningglory (setting [9]) and 85 in the assay on morningglory (setting [10]). In addition, the “Plant response rating, Kochia” value with kochia (31 g ai/ha, preemergence, scale 0 to 100) turned out to be 0; with kochia (setting [6]), 10; in the assay with kochia (setting [12]), 90; with kochia (setting [14]) it was 90. Further, the “Plant response rating (0 = no effect, 100 = complete control), Kochia” value in the assay on kochia (62 g ai/ha, preemergence) came to 10.

In the case of `CC(=O)c1cccc(NC(=O)c2cc(C(C)(C)C)nn2CCF)c1` [Compound 128], the “Morningglory plant response rating” value stood at 10 with morningglory (setting [1]), 45 with morningglory (setting [9]) and 85 in the assay with morningglory (setting [3]). For the same compound, the “Plant response rating, Morningglory” value in the assay with morningglory (setting [2]) came out at 15. Further, in the assay on kochia (62 g ai/ha, preemergence), the “Plant response rating (0 = no effect, 100 = complete control), Kochia” value stood at 0. In addition, in the assay on kochia (setting [6]), the “Plant response rating, Kochia” value turned out to be 0.

In the case of `CCc1nc(C(C)(C)C)sc1C(=O)Nc1cccc(C(=O)NCC2CC2)c1` [Compound 212], the “Morningglory plant response rating” value with morningglory (setting [1]) came to 15; in the assay with morningglory (setting [3]), 65; in the assay with morningglory (setting [4]), 30. Further, the “Plant response rating, Morningglory” value in the assay on morningglory (setting [2]) was 20. For the same compound, the “Plant response rating, Kochia” value in the assay on kochia (setting [5]) is 85; in the assay on kochia (setting [6]) it was 85; with kochia (setting [7]) it was 90; in the assay with kochia (setting [8]) it was 95; in the assay on kochia (setting [13]) it was 90; in the assay on kochia (setting [16]) it was 80. In the assay on kochia (setting [14]), the “Plant response rating, Kochia” value is 80. Also, the “Kochia plant response rating” value in the assay on kochia (setting [15]) is 90.

As for `CCN1CCc2c(NC(=O)c3cc(C(C)(C)C)nn3CC)cccc2C1=O` [Compound 63], the “Plant response rating, Morningglory” value in the assay on morningglory (setting [1]) and in the assay with morningglory (setting [2]) was 15 each time. Moreover, the “Morningglory plant response rating” value with morningglory (setting [9]) amounted to 10; with morningglory (setting [10]), 70. Besides, in the assay with kochia (62 g ai/ha, preemergence), the “Plant response rating (0 = no effect, 100 = complete control), Kochia” value came out at 30. The “Plant response rating, Kochia” value is 80 in the assay on kochia (setting [6]) and 90 in the assay on kochia (setting [11]). Moreover, in the assay on kochia (setting [17]), the “Kochia plant response rating” value worked out at 90.

Consider `CCc1nc(C(C)(C)C)sc1C(=O)Nc1cccc(C(=O)N(CC)CC)c1` [Compound 205], for which the “Morningglory plant response rating” value was 25 in the assay on morningglory (setting [1]), 45 with morningglory (setting [3]) and 30 with morningglory (setting [4]). Further, in the assay on morningglory (setting [2]), the “Plant response rating, Morningglory” value is recorded as 20. The “Plant response rating, Kochia” value with kochia (setting [5]), in the assay on kochia (setting [6]) and in the assay on kochia (setting [7]) was 90 in each case. Further, the “Kochia plant response rating” value in the assay with kochia (setting [17]) is listed as 90.

For `C=CCn1nc(C(C)(C)C)cc1C(=O)Nc1cccc(C(=O)NCC)c1` [Compound 56], in the assay on kochia (62 g ai/ha, preemergence), the “Plant response rating (0 = no effect, 100 = complete control), Kochia” value turned out to be 75. The figures for the “Plant response rating, Kochia” value in the assay with kochia (setting [6]) and in the assay with kochia (setting [11]) were 90 and 95, respectively. For the same compound, the “Kochia plant response rating” value in the assay on kochia (setting [17]) was determined as 95.

On to `CCN1N=C(C(C)(C)C)CC1C(=O)Nc1cc(C(=O)N2CC=CC2)ccc1F` (racemic) [Compound 310], for which the “Plant response rating, Kochia” value is reported as 95 in the assay on kochia (setting [5]), 100 with kochia (setting [6]), 100 in the assay with kochia (setting [7]) and 100 in the assay with kochia (setting [8]).

Turning to `Cc1nn(C(C)(C)C)nc1C(=O)Nc1cccc(C(=S)N(C)C)c1` [Compound 419], the “Plant response rating, Kochia” value worked out at 90 with kochia (setting [5]), 100 in the assay with kochia (setting [7]) and 100 in the assay on kochia (setting [8]). For the same compound, the “Plant response rating (0 = no effect, 100 = complete control), Kochia” value with kochia (125 g ai/ha, preemergence) is 95.

On to `CCn1nc(C(C)(C)C)cc1C(=O)Nc1ccc(OC)c(OC)c1` [Compound 298], for which the “Plant response rating, Kochia” value came to 80 with kochia (setting [5]), 95 in the assay with kochia (setting [6]), 100 in the assay with kochia (setting [7]) and 100 with kochia (setting [8]).

On to `C=CCNC(=O)c1cccc(NC(=O)c2nn(C(C)C)nc2CC)c1` [Compound 382], for which the “Plant response rating, Kochia” value in the assay with kochia (setting [5]) was determined as 0; in the assay with kochia (setting [7]) it was 95; in the assay with kochia (setting [8]) it was 100. For the same compound, the “Plant response rating (0 = no effect, 100 = complete control), Kochia” value with kochia (125 g ai/ha, preemergence) was 20.

In the case of `CCNC(=O)c1cccc(NC(=O)c2nn(C(C)(C)C)cc2Br)c1` [Compound 221, 4-bromo-1-(1,1-dimethylethyl)-N-[3-[(ethylamino)carbonyl]phenyl]-1H-pyrazole-3-carboxamide], the pest or weed control at 62 g/ha with kochia (Bassia scoparia, pre-emergence, 62 g ai/ha, preemergence, scale 0 to 100, read-out: Plant response rating, Kochia) worked out at 0%. Besides, the pest or weed control at 125 g/ha in the assay with kochia (Bassia scoparia, pre-emergence, 125 g ai/ha, scale 0 (no effect) to 100 (complete control), visual, 12 to 14 days, read-out: Plant response rating, Kochia) was 0%. Further, the pest or weed control at 250 g/ha with kochia (Bassia scoparia, pre-emergence, 250 g ai/ha, scale 0-100, read-out: Plant response rating, Kochia) stood at 65%. Besides, in the assay on kochia (Bassia scoparia, pre-emergence, 500 g ai/ha, scale 0 to 100 (0 no effect, 100 complete control), visual, 12 to 14 days, read-out: Plant response rating, Kochia), the pest or weed control at 500 g/ha stood at 100%.

The values above are taken from patent publication US20060069132A1, “Azolecarboxamide herbicides” (priority 2004, published 2006).
